The assay addresses B41 SOSIP.664 pseudotype parent; B41 (9032_08_A1) HIV-1 Env on pseudotyped virus (Human immunodeficiency virus 1, UniProt B3UES2). Nature of the assay: TZM-bl pseudovirus neutralization, luciferase. In kind it is cell-based. The settings on record: average, 1 h preincubation at 37°C, 1% DMSO, 48 h, entry read-out.

What is called IC50 is the point on the concentration scale where inhibition reaches its midpoint.

For the molecule `Cc1ccc(-c2ccc(NC(=O)N3CCC4(CCO4)CC3)cc2)cc1` [GO52], the IC50 stood at 1600 nM.

Source of the values: PMC7701285, “A Strain-Specific Inhibitor of Receptor-Bound HIV-1 Targets a Pocket near the Fusion Peptide” (Cell Reports, 2020).
